Source: PubChem BioAssay (NCI)
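1) Cells in 96-well plates. 2) Compound, 48 h, 5 concentrations. 3) Linear interpolation between surrounding doses. 4) Unreached endpoint = highest concentration. TGI: concentration producing complete growth inhibition.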

Key:
Assay in all cases: NCI tumour cell line growth inhibition, 48 h
IGROV1 ovarian = test system: IGROV1 ovarian
RXF 393 renal = test system: RXF 393 renal
MCF7 breast = test system: MCF7 breast
A498 renal = test system: A498 renal
HCC-2998 colon = test system: HCC-2998 colon
SW-620 colon = test system: SW-620 colon
OVCAR-5 ovarian = test system: OVCAR-5 ovarian
MDA-N = test system: MDA-N
SF-268 CNS = test system: SF-268 CNS
786-0 renal = test system: 786-0 renal
OVCAR-8 ovarian = test system: OVCAR-8 ovarian
HOP-62 NSCLC = test system: HOP-62 NSCLC
NCI/ADR-RES ovarian = test system: NCI/ADR-RES ovarian
M14 melanoma = test system: M14 melanoma
A549 NSCLC = test system: A549 NSCLC
CCRF-CEM leukemia = test system: CCRF-CEM leukemia
SF-295 CNS = test system: SF-295 CNS
MOLT-4 leukemia = test system: MOLT-4 leukemia
HCT-116 colon = test system: HCT-116 colon
MDA-MB-435 = test system: MDA-MB-435
K-562 leukemia = test system: K-562 leukemia
UACC-62 melanoma = test system: UACC-62 melanoma
HCT-15 colon = test system: HCT-15 colon
SN12C renal = test system: SN12C renal
UO-31 renal = test system: UO-31 renal
MALME-3M melanoma = test system: MALME-3M melanoma
OVCAR-4 ovarian = test system: OVCAR-4 ovarian
DU-145 prostate = test system: DU-145 prostate
KM12 colon = test system: KM12 colon
NCI-H460 lung = test system: NCI-H460 lung
HOP-92 NSCLC = test system: HOP-92 NSCLC
ACHN renal = test system: ACHN renal
OVCAR-3 ovarian = test system: OVCAR-3 ovarian
SR leukemia = test system: SR leukemia
NCI-H226 lung = test system: NCI-H226 lung
NCI-H23 lung = test system: NCI-H23 lung
CAKI-1 renal = test system: CAKI-1 renal
SK-MEL-2 melanoma = test system: SK-MEL-2 melanoma
SK-OV-3 ovarian = test system: SK-OV-3 ovarian
MDA-MB-231 breast = test system: MDA-MB-231 breast
EKVX NSCLC = test system: EKVX NSCLC
U251 CNS = test system: U251 CNS
HT29 colon = test system: HT29 colon
SK-MEL-5 melanoma = test system: SK-MEL-5 melanoma
LOX IMVI melanoma = test system: LOX IMVI melanoma
NCI-H522 lung = test system: NCI-H522 lung
UACC-257 melanoma = test system: UACC-257 melanoma
SNB-19 CNS = test system: SNB-19 CNS
T-47D breast = test system: T-47D breast
PC-3 prostate = test system: PC-3 prostate
SK-MEL-28 melanoma = test system: SK-MEL-28 melanoma
SF-539 CNS = test system: SF-539 CNS
COLO 205 colon = test system: COLO 205 colon
RPMI-8226 leukemia = test system: RPMI-8226 leukemia
HL-60(TB) leukemia = test system: HL-60(TB) leukemia
SNB-75 CNS = test system: SNB-75 CNS
TK-10 renal = test system: TK-10 renal
HS 578T breast = test system: HS 578T breast

Measured: TGI

COC1CC(n2ccc(=O)[nH]c2=O)OC1CO (stereo not drawn)
not listed: RPMI-8226 leukemia | HL-60(TB) leukemia | SNB-75 CNS | TK-10 renal | HS 578T breast
> 100 µM: all other assays above

COc1ccc(/C(Cl)=C(\CNc2ccccn2)c2ccccc2)cc1OC
not listed: MCF7 breast | M14 melanoma | OVCAR-3 ovarian
> 100 µM: all other assays above
